Source: patent publication US20240216395A1, “19-NOR C3,3-DISUBSTITUTED C21 -N-PYRAZOLYL STEROID FOR USE IN TREATING MAJOR DEPRESSIVE DISORDER AND […]” (priority 2021, published 2024)

Key:
[1] = system: adult female subjects with severe postpartum depression (PPD); test: Phase 3 placebo-controlled study of Compound (1) 30 mg QD for 14 days in PPD (NCT02978326, ROBIN): efficacy and post hoc analyses; type: in vivo, human
Experimental: Example 4. A Multicenter, Randomized, Double-Blind, Parallel-Group, Placebo-Controlled Study Evaluating the Efficacy, Safety, and Pharmacokinetics of Compound (1) in the Treatment of Adult Female Subjects with Severe Postpartum Depression
This was a multicenter, randomized, double-blind, parallel-group, placebo-controlled study of the efficacy, safety, and pharmacokinetics of Compound (1) in adult subjects diagnosed with severe PPD.
Randomized subjects received 30 mg QD of study drug (Compound (1) Capsules or placebo). Those subjects who could not tolerate 30 mg QD will received 20 mg QD for the remainder of the Treatment Period. Subjects who experienced intolerable adverse events (AEs) at the 20 mg QD dose level could be discontinued from study treatment at the discretion of the Investigator. Subjects were instructed to take the study drug with food. Study drug was self-administered by subjects in the evening (8:00 pm±30 min) on an outpatient basis for the entire 14-day Treatment Period. Study drug administration was monitored via a follow-up call from the site each evening (within approximately 1 hour following the scheduled evening dose) on Days 1 to 14.
The primary efficacy endpoint was the change from baseline in HAM-D total score at the end of the Treatment Period (Day 15). The HAM-D total score was calculated as the sum of the 17 individual item scores.
Secondary endpoints included: • Change from baseline in the HAM-D total score at all time points other than Day 15; • HAM-D Response defined as a 50% or greater reduction from baseline in HAM-D total score; • HAM-D Remission defined as a HAM-D total score of ≤7; • Change from baseline in MADRS total score at Day 15 and other time points; • CGI-I Response defined as “very much improved” or “much improved”; • Change from baseline in HAM-A total score at Day 15 and other time points; • Changes from baseline in HAM-D subscales and individual item scores at Day 15 and other time points
The change from baseline in HAM-D total score was analyzed using a mixed effects model for repeated measures (MMRM); the model included center, treatment, baseline HAM-D total score, assessment time point, and time point-by-treatment as explanatory variables. All post-baseline time points were included in the model. The primary comparison was between Compound (1) and placebo at the 15-day time point. Model-based point estimates (e.g., least squares [LS] means), 95% confidence intervals, and p-values were reported. An unstructured covariance structure was used to model the within-subject errors. Continuous secondary and other variables were analyzed using similar methods.
Binary efficacy endpoints, including responder and remission endpoints, were summarized and analyzed using the generalized estimating equation method.
As indicated in Example 4, women (N=151), ages 18-45, ≤6 months postpartum, diagnosed with PPD (defined as a major depressive episode with onset in the 3rd trimester or ≤4 weeks postpartum), and a baseline HAMD-17 total score ≥26, were randomized to study drug in an outpatient setting.
Patients were randomized 1:1 to receive oral Compound (1) 30 mg or placebo once daily for 14 days, with 4 weeks follow-up. The change from baseline (CFB) vs placebo in HAMD-17 at Day 15 was the primary endpoint. Treatment emergent adverse events (TEAEs) were assessed throughout the study.
Post hoc analyses explored concurrent anxiety and depression improvement using a combination of scales at Days 15 and 45: (1) HAMD-17≤7+HAM-A≤7, or (2) MADRS ≤10+HAM-A≤7. Depression improvement was defined as either a HAMD-17 total score ≤7, or a MADRS total score […]. Improvement in anxiety symptoms was defined as a HAM-A total score ≤7.
CFB in HAMD-17 total score was evaluated using the least-squares mean from a mixed effect model for repeated measures. […]

[2] = system: adult female subjects with severe postpartum depression (PPD); test: Phase 3 PPD study (NCT02978326): safety, TEAEs and NNH; type: in vivo, human
Experimental: Safety Endpoints: Safety and tolerability of study drug was evaluated by frequency of adverse events; severity, relatedness, and seriousness of adverse events; clinical laboratory measures, vital signs, ECGs; and concomitant medication usage. Suicidality was monitored using the C-SSRS.
Adverse events were coded using Medical Dictionary for Regulatory Activities (MedDRA™) Version 19.1 or higher. […] The incidence of adverse events was also presented by maximum severity and relationship to study drug. Vital signs, clinical laboratory measures, ECG, concomitant medication usage, and C-SSRS data was summarized by treatment, where applicable. Out-of-range safety endpoints could be categorized as low or high, where applicable. Safety data was summarized and examined for possible relationships between subject characteristics and plasma Compound (1) concentrations, as appropriate. Suicidality data collected using the C-SSRS at baseline and at each visit during the active Treatment Period was listed for all subjects. The C-SSRS listings included behavior type and/or category for suicidal ideation and suicidal behavior of the C-SSRS.
Sustained Response or Remission was defined as continued categorization of a Responder/Remitter at both days 15 and 45. Tolerability and safety outcomes included number needed to harm (NNH) for discontinuation due to an AE, as well as individual safety events of interest. NNH was calculated for (1) AEs with incidence ≥2% with Compound (1) and higher rate than placebo, and (2) the proportion of patients in each treatment arm discontinuing the study drug due to an AE. 95% confidence intervals (CIs) were calculated based upon Wilson score intervals.

C[C@@]1(O)CC[C@H]2[C@H](CC[C@@H]3[C@@H]2CC[C@]2(C)[C@@H](C(=O)Cn4cc(C#N)cn4)CC[C@@H]32)C1 [Compound (1), 1-(2-((3R,5R,8R,9R,10S,13S,14S,17S)-3-hydroxy-3,13-dimethylhexadecahydro-1H-cyclopenta[a]phenanthren-17-yl)-2-oxoethyl)-1H-pyrazole-4-carbonitrile]
HAMD-17 early insomnia item mean reduction from baseline [1]: −1.3 | HAMD-17 late insomnia item mean reduction from baseline [1]: −1.3 | HAMD-17 middle insomnia item mean reduction from baseline [1]: −1.3 | EPDS-3A least square mean CFB ([1]; Day 8): −2.2 | Concurrent improvement HAMD-17 ≤ 7 and HAM-A ≤ 7, OR (95% CI) vs placebo ([1]; Day 15): 2.75 (1.30, 5.84) | Concurrent improvement MADRS ≤ 10 and HAM-A ≤ 7, OR (95% CI) vs placebo ([1]; Day 15): 2.35 (1.15, 4.80) | LS mean difference vs placebo (as printed after HAMD-17 CFB) ([1]; Day 15): −2.4 | MADRS Remission rate ([1]; Day 15): 54.1% | MADRS Response rate ([1]; Day 15): 73.0% | HAMD-17 total score CFB ([1]; Day 15 (primary endpoint)): −17.8 | Concurrent improvement HAMD-17 ≤ 7 and HAM-A ≤ 7, OR (95% CI) vs placebo ([1]; Day 45): 3.45 (1.66, 7.16) | Concurrent improvement MADRS ≤ 10 and HAM-A ≤ 7, OR (95% CI) vs placebo ([1]; Day 45): 3.09 (1.50, 6.36) | EPDS-3A least square mean CFB ([1]; Day 45): −3.6 | HAM-A Remission rate ([1]; day 3): 27.0% | HAMD-17-Ins CFB, Compound (1)-placebo difference ([1]; day 3): −0.841 | HAMD-17 A/S least squares mean CFB ([1]; day 3): −3.8 | HAM-A Response rate ([1]; day 8): 69.3% | EPDS remission (<13) rate ([1]; day 15): 64% | HAMD-17 A/S Response rate ([1]; day 15): 68.9% | HAMD-17 Remission rate ([1]; day 15): 45% | HAMD-17 Response rate ([1]; day 15): 72% | NNT for EPDS remission <13 ([1]; day 15): 6 | NNT, rapid outcomes ([1]; day 15): 5 | HAMD-17 A/S least squares mean CFB ([1]; day 45): −5.7 | NNT, sustained outcomes ([1]; day 45): 5 | PHQ-9 total score least squares mean decrease ([1]; day 45): −11.8 | SF-36v2 domains (SF, MH, PF, RP, BP) and MCS vs placebo ([1]; day 45): statistically significant improvements | Sustained HAMD-17 Remission rate ([1]; days 15 and 45): 37% | Sustained HAMD-17 Response rate ([1]; days 15 and 45): 59% | Loss of consciousness or syncope ([2]; 30 mg): no reports of loss of consciousness or syncope | NNH vs placebo: AE leading to treatment discontinuation ([2]; 30 mg): 78 (ns) | NNH vs placebo: Diarrhoea ([2]; 30 mg): 28 (ns) | NNH vs placebo: Dizziness ([2]; 30 mg): 46 (ns) | NNH vs placebo: Dry mouth (Gastrointestinal disorders) ([2]; 30 mg): 26 (ns) | NNH vs placebo: Dry mouth (under Infections and infestations) ([2]; 30 mg): 41 (ns) | NNH vs placebo: Fatigue ([2]; 30 mg): 41 (ns) | NNH vs placebo: Pain in extremity ([2]; 30 mg): 84 (ns) | NNH vs placebo: Sedation ([2]; 30 mg): 20 (ns) | NNH vs placebo: Somnolence ([2]; 30 mg): 23 (ns) | NNH vs placebo: Upper respiratory tract infection ([2]; 30 mg): 16 (ns) | Overall tolerability ([2]; 30 mg): generally well tolerated | Diarrhoea ([2]; 30 mg (N = 78)): 5 (6.4%) n (%) | Dizziness ([2]; 30 mg (N = 78)): 6 (7.7%) n (%) | Dry mouth (Gastrointestinal disorders) ([2]; 30 mg (N = 78)): 3 (3.8%) n (%) | Dry mouth (listed under Infections and infestations) ([2]; 30 mg (N = 78)): 3 (3.8%) n (%) | Fatigue ([2]; 30 mg (N = 78)): 3 (3.8%) n (%) | Pain in extremity ([2]; 30 mg (N = 78)): 2 (2.6%) n (%) | Sedation ([2]; 30 mg (N = 78)): 4 (5.1%) n (%) | Somnolence ([2]; 30 mg (N = 78)): 12 (15.4%) n (%) | Subjects with an AE leading to treatment discontinuation ([2]; 30 mg (N = 78)): 1 (1.3%) n (%) | Upper respiratory tract infection ([2]; 30 mg (N = 78)): 6 (7.7%) n (%) | Patients with a TEAE whose TEAEs were mild and moderate in severity ([2]; clinical trial of Example 4): 94%
